Data: ChEMBL document CHEMBL3774388, “Synthesis and anti-cancer activity evaluation of 5-(2-carboxyethenyl)-isatin derivatives” (Eur J Med Chem, 2016)
Calls of active or inactive are those of the source. The rule behind the calls is not given here.

Tests used:
[1] = test system: Jurkat; assay: Anticancer activity against human Jurkat cells after 48 hrs by MTT assay; format: functional, cell-based
[2] = test system: Jurkat; assay: Induction of apoptosis in human Jurkat cells using Z-DEVD-R110 as substrate assessed as caspase3 activation at 30 nM incubated for 18 hrs measured at 48 hrs by fluorescence analysis; format: functional, cell-based
[3] = test system: Jurkat; assay: Induction of apoptosis in human Jurkat cells assessed as induction of cell shrinkage and blebbing at 10 and 30 nM incubated for 12 hrs by phase contrast microscopy; format: functional, cell-based
[4] = test system: Jurkat; assay: Induction of apoptosis in human Jurkat cells assessed as increase in cells with reduction in mitochondrial membrane potential at 30 nM after 24 hrs by TMRM-staining based flow cytometric analysis ( Rvb = 7.8%); format: functional; parameters: scale not given: the % may be the effect or the level left
[5] = Anticancer activity against human SKOV3 cells after 48 hrs by MTT assay; format: functional, cell-based; conditions: SK-OV-3, 48 h
[6] = test system: Jurkat; assay: Induction of apoptosis in human Jurkat cells assessed as necrotic cells at 30 nM after 12 hrs by Annexin-V-FITC/PI-staining based flow cytometric analysis (reference value: 0.8%); format: functional
[7] = test system: MCF7; assay: Anticancer activity against human MCF7 cells after 48 hrs by MTT assay; format: functional, cell-based; conditions: MCF7, 48 h
[8] = test system: Jurkat; assay: Induction of apoptosis in human Jurkat cells assessed as viable cells at 30 nM after 12 hrs by Annexin-V-FITC/PI-staining based flow cytometric analysis (reference value: 99.1%); format: functional; conditions: read-out: Activity
[9] = Anticancer activity against human BT474 cells after 48 hrs by MTT assay; format: functional, cell-based; conditions: BT-474, 48 h
[10] = test system: HeLa; assay: Anticancer activity against human HeLa cells after 48 hrs by MTT assay; format: functional, cell-based
[11] = test system: Jurkat; assay: Induction of apoptosis in human Jurkat cells assessed as late apoptotic cells at 30 nM after 12 hrs by Annexin-V-FITC/PI-staining based flow cytometric analysis relative to control; format: functional
[12] = test system: A498; assay: Anticancer activity against human A498 cells after 48 hrs by MTT assay; format: functional, cell-based; conditions: A498, 48 h
[13] = test system: Jurkat; assay: Induction of apoptosis in human Jurkat cells assessed as necrotic cells at 10 nM after 12 hrs by Annexin-V-FITC/PI-staining based flow cytometric analysis (reference value: 0.8%); format: functional
[14] = test system: Jurkat; assay: Induction of apoptosis in human Jurkat cells assessed as late apoptotic cells at 10 nM after 12 hrs by Annexin-V-FITC/PI-staining based flow cytometric analysis relative to control; format: functional
[15] = Anticancer activity against human DU145 cells after 48 hrs by MTT assay; format: functional, cell-based; conditions: DU-145, 48 h
[16] = test system: Jurkat; assay: Induction of apoptosis in human Jurkat cells assessed as early apoptotic cells at 30 nM after 12 hrs by Annexin-V-FITC/PI-staining based flow cytometric analysis relative to control; format: functional
[17] = test system: Jurkat; assay: Induction of apoptosis in human Jurkat cells assessed as early apoptotic cells at 10 nM after 12 hrs by Annexin-V-FITC/PI-staining based flow cytometric analysis relative to control; format: functional
[18] = test system: NCI-H1299; assay: Anticancer activity against human NCI-H1299 cells after 48 hrs by MTT assay; format: functional, cell-based; conditions: NCI-H1299, 48 h
[19] = test system: HEK293; assay: Cytotoxicity against HEK293 cells after 48 hrs by MTT assay; format: cell-based; conditions: Homo sapiens, HEK293, 48 h
[20] = test system: Jurkat; assay: Induction of apoptosis in human Jurkat cells assessed as viable cells at 10 nM after 12 hrs by Annexin-V-FITC/PI-staining based flow cytometric analysis (reference value: 99.1%); format: functional; conditions: read-out: Activity
[21] = test system: HUVEC; assay: Cytotoxicity against HUVEC cells after 48 hrs by MTT assay; format: cell-based; conditions: Homo sapiens
[22] = test system: Jurkat; assay: Induction of apoptosis in human Jurkat cells at 10 to 30 nM by Annexin-V-FITC/PI-staining based flow cytometric analysis; format: functional, cell-based; conditions: TDE = time-dependent effect
[23] = Anticancer activity against human HCT116 cells after 48 hrs by MTT assay; format: functional, cell-based; conditions: HCT-116, 48 h
[24] = test system: A549; assay: Anticancer activity against human A549 cells after 48 hrs by MTT assay; format: functional, cell-based; conditions: A549, 48 h
[25] = Anticancer activity against human BT549 cells after 48 hrs by MTT assay; format: functional, cell-based; conditions: BT-549, 48 h
[26] = test system: Jurkat; assay: Induction of apoptosis in human Jurkat cells assessed as increase in cells with reduction in mitochondrial membrane potential at 30 nM after 48 hrs by TMRM-staining based flow cytometric analysis ( Rvb = 7.8%); format: functional; parameters: scale not given: the % may be the effect or the level left

CCCCc1ccc2c(c1)C(=O)C(=O)N2
IC50 [1]: > 10 µM

COC(=O)/C=C/c1ccc2c(c1)C(=O)C(=O)N2Cc1ccc(C#N)cc1
IC50 [1]: 0.08 µM

COC(=O)/C=C/c1ccc2c(c1)CC(=O)N2Cc1ccc(Br)cc1
IC50 [1]: > 10 µM

COc1ccc(CN2C(=O)C(=O)c3cc(/C=C/C(=O)OCCO)ccc32)cc1
IC50 [1]: 0.5 µM

COC(=O)/C=C/c1ccc2c(c1)C(=O)C(=O)N2Cc1cccc(Br)c1
IC50 [1]: 0.12 µM

O=C1Nc2ccc(Cl)cc2C1=O
IC50 [1]: > 10 µM

COC(=O)/C=C/c1ccc2c(c1)C(=O)C(=O)N2C
IC50 [1]: 0.25 µM

COC(=O)/C=C/c1ccc2c(c1)C(=O)C(=O)N2Cc1ccc(Cl)c(Cl)c1
IC50 [1]: 0.85 µM

CCOC(=O)/C=C/c1ccc2c(c1)C(=O)C(=O)N2Cc1ccc(Br)cc1
IC50 [1]: 0.07 µM

CCOC(=O)/C=C/c1ccc2c(c1)C(=O)C(=O)N2Cc1ccc(OC)cc1
IC50 [1]: 0.03 µM

COC(=O)/C=C/c1ccc2c(c1)C(=O)C(=O)N2Cc1ccc(OC)cc1
Activity [2]: Active
Activity [3]: Active
Activity [4]: 32%
IC50 [5]: > 10 µM
Activity [6]: 1.9%
IC50 [7]: 0.08 µM
viability at 0.03 µM [8]: 56.1%
IC50 [9]: 5.94 µM
IC50 [10]: 9.12 µM
Activity [11]: 6.5%
IC50 [12]: 5.3 µM
Activity [13]: 1.8%
Activity [14]: 7.2%
IC50 [15]: > 10 µM
Activity [16]: 35.5%
IC50 [1]: 0.03 µM
Activity [17]: 28.5%
IC50 [18]: 0.03 µM
IC50 [19]: > 10 µM
viability at 0.01 µM [20]: 62.5%
IC50 [21]: > 10 µM
Activity [22]: tde
IC50 [23]: 0.04 µM
IC50 [24]: > 10 µM
IC50 [25]: 0.07 µM
Activity [26]: 81.9%

CCCCOC(=O)/C=C/c1ccc2c(c1)C(=O)C(=O)N2Cc1ccc(Br)cc1
IC50 [1]: 0.7 µM

COC(=O)/C=C/c1ccc2c(c1)/C(=N/O)C(=O)N2Cc1ccc(Br)cc1
IC50 [1]: 5.86 µM

CCCCOC(=O)/C=C/c1ccc2c(c1)C(=O)C(=O)N2Cc1ccc(OC)cc1
IC50 [1]: 0.22 µM

COC(=O)/C=C/c1ccc2c(c1)C(=O)C(=O)N2Cc1ccc(C(F)(F)F)cc1
IC50 [1]: 0.36 µM

O=C1Nc2ccccc2C1=O [ISATIN]
IC50 [1]: > 10 µM

COC(=O)/C=C/c1ccc2c(c1)C1(OCCO1)C(=O)N2Cc1ccc(OC)cc1
IC50 [1]: > 10 µM

CC(C)(C)OC(=O)/C=C/c1ccc2c(c1)C(=O)C(=O)N2Cc1ccc(Br)cc1
IC50 [1]: 1.04 µM

COC(=O)/C=C/c1ccc2c(c1)C(=O)C(=O)N2Cc1ccc(Cl)cc1
IC50 [1]: 0.26 µM

COC(=O)/C=C/c1ccc2c(c1)C(O)C(=O)N2Cc1ccc(OC)cc1 (stereo unspecified)
IC50 [1]: 0.03 µM

O=C1C(=O)N(Cc2ccc(Br)cc2)c2ccc(/C=C/C(=O)N3CCCC3)cc21
IC50 [1]: 3.19 µM

COC(=O)/C=C/c1ccc2c(c1)C(O)C(=O)N2Cc1ccc(Br)cc1 (stereo unspecified)
IC50 [1]: 1.23 µM

O=C1Nc2ccc(F)cc2C1=O [5-FLUOROISATIN]
IC50 [1]: > 10 µM

COC(=O)/C=C/c1ccc2c(c1)C(=O)C(=O)N2CCOc1ccccc1
IC50 [1]: 0.2 µM

COC(=O)/C=C/c1ccc2c(c1)CC(=O)N2Cc1ccc(OC)cc1
IC50 [1]: > 10 µM

CC[C@@]1(O)C(=O)OCc2c1cc1n(c2=O)Cc2cc3ccccc3nc2-1 [CAMPTOTHECIN]
IC50 [1]: 0.085 µM

COc1ccc(CN2C(=O)C(=O)c3cc(/C=C/C(=O)O)ccc32)cc1
IC50 [1]: > 10 µM

COc1ccc(CN2C(=O)C(=O)c3cc(/C=C/C(=O)N4CCOCC4)ccc32)cc1
IC50 [1]: 4.55 µM

COc1ccc(CN2C(=O)C(=O)c3cc(/C=C/C(N)=O)ccc32)cc1
IC50 [1]: 1.61 µM

COC(=O)/C=C/c1ccc2c(c1)/C(=N/O)C(=O)N2Cc1ccc(OC)cc1
IC50 [1]: 9.11 µM

COC(=O)/C=C/c1ccc2c(c1)C(=O)C(=O)N2
IC50 [1]: 0.2 µM

COC(=O)/C=C/c1cccc2c1C(=O)C(=O)N2Cc1ccc(OC)cc1
IC50 [1]: 0.79 µM

COC(=O)/C=C/c1ccc2c(c1)C(=O)C(=O)N2Cc1ccc(F)cc1
IC50 [1]: 0.38 µM

COC(=O)/C=C/c1ccc2c(c1)C1(OCCO1)C(=O)N2Cc1ccc(Br)cc1
IC50 [1]: > 10 µM

O=C(/C=C/c1ccc2c(c1)C(=O)C(=O)N2Cc1ccc(Br)cc1)OCCO
IC50 [1]: 0.4 µM

COC(=O)/C=C/c1ccc2c(c1)C(=O)C(=O)N2Cc1ccc2ccccc2c1
IC50 [1]: 0.64 µM

COc1ccc2c(c1)C(=O)C(=O)N2 [5-METHOXYISATIN]
IC50 [1]: > 10 µM

COC(=O)/C=C/c1ccc2c(c1)C(=O)C(=O)N2Cc1cc(C)cc(C)c1
IC50 [1]: 0.62 µM

COC(=O)/C=C/c1ccc2c(c1)C(=O)C(=O)N2Cc1ccc(C)cc1
IC50 [1]: 0.05 µM

CCN1C(=O)C(=O)c2cc(/C=C/C(=O)OC)ccc21
IC50 [1]: 0.2 µM

COc1ccc(CN2C(=O)C(=O)c3cc(/C=C/C(=O)N4CCCC4)ccc32)cc1
IC50 [1]: 2.24 µM

COC(=O)/C=C/c1ccc2c(c1)C(=O)C(=O)N2Cc1ccccc1
IC50 [1]: 0.07 µM

O=C1C(=O)N(Cc2ccc(Br)cc2)c2ccc(/C=C/C(=O)N3CCOCC3)cc21
IC50 [1]: 1.43 µM

COc1ccc(CN2C(=O)C(=O)c3cc(/C=C/C(=O)OC(C)(C)C)ccc32)cc1
IC50 [1]: 0.31 µM

COC(=O)/C=C/c1ccc2c(c1)N(Cc1ccc(OC)cc1)C(=O)C2=O
IC50 [1]: 3.11 µM

COC(=O)/C=C/c1cccc2c1N(Cc1ccc(OC)cc1)C(=O)C2=O
IC50 [1]: > 10 µM

NC(=O)/C=C/c1ccc2c(c1)C(=O)C(=O)N2Cc1ccc(Br)cc1
IC50 [1]: 2.34 µM

O=C1Nc2ccc(Br)cc2C1=O
IC50 [1]: > 10 µM

Cc1ccc2c(c1)C(=O)C(=O)N2
IC50 [1]: > 10 µM

COC(=O)/C=C/c1ccc2c(c1)C(=O)C(=O)N2Cc1ccccc1Br
IC50 [1]: 0.8 µM

COC(=O)/C=C/c1ccc2c(c1)C(=O)C(=O)N2Cc1ccc(Br)cc1
IC50 [1]: 0.06 µM
